The text below walks through data of patent US7491819B1 (priority 2004, dated 2009).

Like-named read-outs stand apart in the source and are kept apart here.

Usually melting point stands for the temperature, or range, at which the solid turns liquid.

In series [1] the target is T1, HIV-integrase (Human immunodeficiency virus type 1 group M subtype B, UniProt P12497).
T1 construct: Recombinant integrase (0.26 ng) was incubated with the beads
The series can be described thus: HIV-Integrase Inhibition Activity (SPA bead strand-transfer assay). The class given is biochemical. An outline of the steps: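 Strand-transfer read-out: CPM from P33-labelled target DNA (0.1 fmol) joined to bead-bound biotin substrate DNA (5 pmole), with EDTA stop at 10 mM final. Integrase (0.26 ng) prebound to streptavidin SPA beads 90 min, 37° C, and washed before adding inhibitor.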

Series [2] relates to NL-Rluc virus. The series can be described thus: Inhibition of HIV replication (recombinant NL-Rluc virus, luciferase). The class given is cell-based. The note with it: Human immunodeficiency virus 1, read-out: Inhibition of HIV replication.
The subject of series [3] is NL36G virus. How it is done:
Virus and cell lines. The T-cell line, MT-2, was obtained through the AIDS Research and Reference Reagent Program. MT-2 cells were sub-cultured twice a week in RPMI 1640 medium supplemented with 10% fetal bovine serum, 2 mM L-glutamine, and 10 mM HEPES buffer pH 7.5. The HIV-1303B virus is a molecular clone derived from the NL4-3 strain of HIV-1 that was obtained from the NIH AIDS Research and Reference Reagent Program. For combinations with enfuvirtide, the NL36G virus was used. […] Virus stocks were made by transfecting 293T cells with a proviral DNA clone using LipofectAMINE PLUS (Invitrogen), according to the manufacturer's instructions. Three days post-transfection, virus was harvested and passaged once in MT-2 cells before titration in MT-2 cells.
Chemicals. Example 19, atazanavir, didanosine, stavudine, efavirenz, and enfuvirtide (T-20) were synthesized by Bristol-Myers Squibb using published or known reactions. […] Tenofovir was tested as tenofovir disopoxil fumarate. Zidovudine and zalcitabine were purchased from Sigma, and emtricitabine from Moravek Biochemicals.
Drug Susceptibility and Cytotoxicity Assays. For drug susceptibility assays, MT-2 cells were infected with HIV-1 303B (or NL36G), at an MOI of 0.001, and seeded into 96-well microtiter plates (2.5×10^5 cells/ml) containing serial dilutions of test compounds. […] Each drug ratio consisted of an array of 3-fold serial dilutions, and was performed with eight or more replicas on separate multi-well plates. HIV infected cells were incubated at 37° C. in 5% CO2, and on day five post-infection, the extent of virus replication was measured by determining cell viability using the CellTiter 96 Aqueous Non-Radioactive Cell Proliferation Assay (Promega). […] Cytotoxicity assays were performed in parallel with the combination experiments. Here, uninfected cells were exposed to the same drug combinations, and assayed after five days for cell viability using the MTS assay.
Analysis of Drug Combination Effects. For determination of combination index (CI) values, drugs were diluted in a fixed ratio and multiple ratios were analyzed. The drug serial dilutions spanned a range of concentrations near the EC50 value of each compound, so that equivalent antiviral activities could be compared. The normalized responses from each therapy are fit to the four-parameter logistic model with a common minimum and maximum across all therapies. Conceptually, this equation can be written as
In this equation, Fa stands for “fraction affected,” and represents the fraction of the viral load that has been inactivated. […] The EC50, represented by the Ci in the above equation, is the drug concentration that is expected to reduce the amount of virus by 50%, and the Bi are the parameters that reflects the slope of the concentration-response curve. For this assay, A is the bottom plateau common to all curves, D is the common top plateau, Bj is the “slope” parameter for the jth therapy, and Cj is the concentration that produces an effect equal to the average of A and D for the jth therapy. Therapies 1 and 2 correspond to mono therapies 1 and 2, respectively. Therapies 3, 4, and 5 correspond to the three combination therapies. EC50 values for each drug were determined from the single drug experiments, using the above equation. The equation was fit using a nonlinear regression routine (Proc Nlin) in PC SAS version 8.2 (SAS Institute Inc.).
To assess antiviral effects of different drug combination treatments, combination indices (CIs) were calculated according to Chou and Rideout. The combination index was computed as
In this equation [Dm]1 and [Dm]2 are the concentrations of drugs that would individually produce a specific level of effect, while [D]1 and [D]2 are the concentrations of drugs in combination that would produce the same level of effect.
Theoretically, additivity is implied if the CI is equal to one, synergy if the CI is less than one, and antagonism if the CI is greater than one.

For series [4], the system named is MT-2 cells. Nature of the series: Cytotoxicity assay of the drug combinations, uninfected cells, MTS. The class given is cell-based. The note with it: highest concentrations tested, five days. How it is done:
Drug Susceptibility and Cytotoxicity Assays. For drug susceptibility assays, MT-2 cells were infected with HIV-1 303B (or NL36G), at an MOI of 0.001, and seeded into 96-well microtiter plates (2.5×10^5 cells/ml) containing serial dilutions of test compounds. […] Each drug ratio consisted of an array of 3-fold serial dilutions, and was performed with eight or more replicas on separate multi-well plates. HIV infected cells were incubated at 37° C. in 5% CO2, and on day five post-infection, the extent of virus replication was measured by determining cell viability using the CellTiter 96 Aqueous Non-Radioactive Cell Proliferation Assay (Promega). Maximal cell protection was typically seen in samples treated with the highest drug concentration. In the cell viability assay, the tetrazolium compound MTS (3-(4,5-dimethylthiazol-2-yl)-5-(3-carboxymethoxyphenyl)-2-4-sulphophenyl-2H-tetrazolium) is added to cells, whereby enzymes in metabolically active cells convert it into a colored formazan product, which is quantitated by reading absorbance at 490 nm. Cytotoxicity assays were performed in parallel with the combination experiments. Here, uninfected cells were exposed to the same drug combinations, and assayed after five days for cell viability using the MTS assay.

Where [5] appears, read: Table 1, read-out: Activity (HIV-integrase inhibition, IC50 class).
[6] abbreviates: Table 2a, read-out: HIV-Integrase Inhibition Activity.
The mark [7] stands for this setting: in combination with Example 19, EC50 ratio 1:1 (molar 5:44).
Setting [8] is: in combination with Example 19, EC50 ratio 1:2.5 (molar 1:22).
Setting [9] is: in combination with Example 19, EC50 ratio 2.5:1 (molar 25:88).

As to `CC1OCCn2c1nc(C(=O)NCc1ccc(Cl)c(Cl)c1)c(O)c2=O` (centres unmarked) [Example 6, Pyrimido[2,1-c][1,4]oxazine-2-carboxamide, N-[(3,4-dichlorophenyl)methyl]-4,6,7,9-tetrahydro-3-hydroxy-9-methyl-4-oxo-], the melting point amounted to 192 °C. Moreover, the IC50 in series [1] (setting [5]) lay in the range of 2 to 100 nM.

Compound `CC1OCCn2c1nc(C(=O)NCc1ccc(F)c(Cl)c1)c(O)c2=O` (centres unmarked) [Example 7, Pyrimido[2,1-c][1,4]oxazine-2-carboxamide, N-[(3-chloro-4-fluorophenyl)methyl]-4,6,7,9-tetrahydro-3-hydroxy-9-methyl-4-oxo-] registered a melting point of 172 °C. Besides, in series [1] (setting [5]), the IC50 was 2 to 100 nM.

As to `COc1ncccc1-c1cc(F)ccc1CNC(=O)c1nc2n(c(=O)c1O)CCOC2(C)C` [Example 76, Pyrimido[2,1-c][1,4]oxazine-2-carboxamide, N-[[4-fluoro-2-(2-methoxy-3-pyridinyl)phenyl]methyl]-4,6,7,9-tetrahydro-3-hydroxy-9,9-dimethyl-4-oxo-], the melting point worked out at 227 °C. For the same compound, the IC50 in series [1] (setting [5]) was in the range of 2 to 100 nM.

With `CCOP(=O)(OCC)c1cc(F)ccc1CNC(=O)c1nc2n(c(=O)c1O)CCOC2(C)C` [Example 213, Phosphonic acid, [5-fluoro-2-[[[(4,6,7,9-tetrahydro-3-hydroxy-9,9-dimethyl-4-oxopyrimido[2,1-c][1,4]oxazin-2-yl)carbonyl]amino]methyl]phenyl]-, diethyl ester], the melting point was determined as 124 °C. For the same compound, in series [1] (setting [5]), the IC50 was 2 to 100 nM.

For `CCC1OCCn2c1nc(C(=O)NCc1ccc(F)cc1-n1cnc(C)n1)c(O)c2=O` (centres unmarked) [Example 284, Pyrimido[2,1-c][1,4]oxazine-2-carboxamide, 9-ethyl-N-[[4-fluoro-2-(3-methyl-1H-1,2,4-triazol-1-yl)phenyl]methyl]-4,6,7,9-tetrahydro-3-hydroxy-4-oxo-e], the melting point was 213 °C. Besides, the IC50 in series [1] (setting [6]) lay within 2 to 100 nM. Also, the EC50 in series [2] lay within 3 to 100 nM.

The compound `Cn1ccc(-c2cc(F)ccc2CNC(=O)c2nc3n(c(=O)c2O)CCOC3(C)C)n1` [Example 286, Pyrimido[2,1-c][1,4]oxazine-2-carboxamide, N-[[4-fluoro-2-(1-methyl-1H-pyrazol-3-yl)phenyl]methyl]-4,6,7,9-tetrahydro-3-hydroxy-9,9-dimethyl-4-oxo-] returned a melting point of 220 °C. Moreover, the IC50 in series [1] (setting [6]) fell in the range of 2 to 100 nM. For the same compound, the EC50 in series [2] fell in the range of 3 to 100 nM.

On to `Cn1nccc1-c1cc(F)ccc1CNC(=O)c1nc2n(c(=O)c1O)CCOC2(C)C` [Example 287, Pyrimido[2,1-c][1,4]oxazine-2-carboxamide, N-[[4-fluoro-2-(1-methyl-1H-pyrazol-5-yl)phenyl]methyl]-4,6,7,9-tetrahydro-3-hydroxy-9,9-dimethyl-4-oxo-], for which the melting point came to 221 °C. For the same compound, in series [1] (setting [6]), the IC50 lay in the range of 2 to 100 nM. In addition, the EC50 in series [2] lay within 3 to 100 nM.

In the case of `Cc1ncn(-c2ccccc2CNC(=O)c2nc3n(c(=O)c2O)CCOC3(C)C)n1` [Example 288, Pyrimido[2,1-c][1,4]oxazine-2-carboxamide, 4,6,7,9-tetrahydro-3-hydroxy-9,9-dimethyl-N-[[2-(3-methyl-1H-1,2,4-triazol-1-yl)phenyl]methyl]-4-oxo-e], the melting point was 234 °C (dec.). Further, the IC50 in series [1] (setting [6]) lay in the range of 2 to 100 nM. In addition, in series [2], the EC50 was 3 to 100 nM.

enfuvirtide: the “overall antiviral effect of the two-drug combination with Example 19 (in words)” value in series [3] (classification from combination indices) is “synergistic”. Further, in series [3] (setting [7]), the “Combination Indices at 50% HIV Inhibition (Confidence Interval)” value is listed as 0.68 (0.59, 0.77); the “Combination Indices at 75% HIV Inhibition (Confidence Interval)” value is given as 0.59 (0.48, 0.70); the “Combination Indices at 90% HIV Inhibition (Confidence Interval)” value is 0.52 (0.37, 0.67). Also, in series [3] (setting [8]), the “Combination Indices at 50% HIV Inhibition (Confidence Interval)” value was 0.75 (0.65, 0.85); the “Combination Indices at 75% HIV Inhibition (Confidence Interval)” value is on record as 0.60 (0.49, 0.70); the “Combination Indices at 90% HIV Inhibition (Confidence Interval)” value is recorded as 0.48 (0.34, 0.61). In series [3] (setting [9]), the “Combination Indices at 50% HIV Inhibition (Confidence Interval)” value was 0.76 (0.65, 0.86); the “Combination Indices at 75% HIV Inhibition (Confidence Interval)” value is on record as 0.73 (0.59, 0.86); the “Combination Indices at 90% HIV Inhibition (Confidence Interval)” value is reported as 0.71 (0.50, 0.92). Also, in series [3] (single drug, MT-2 cells, MOI 0.001, day five, MTS cell viability), the EC50 is 61 nM. The “cytotoxicity of the drug combinations with Example 19” value in series [4] was “No significant cytotoxicity”.
